Test results as given in publication PMC4774911, “Biochemical Screening of Five Protein Kinases from Plasmodium falciparum against 14,000 Cell-Active Compounds” (PLoS ONE, 2016).
Where two headings read alike, the source gives them in different places.

Assays:
[1] = molecular target: T1, Plasmodium falciparum calcium-dependent protein kinase 1 (CDPK1) (Plasmodium falciparum, UniProt P62344); test: CDPK1 Kinase-Glo ATP-consumption screen and dose-response; type: biochemical; details: hits below 1 uM; read-out: CDPK1 IC50
T1 construct: 6-Histidine (N); made in house
T1 sequence (P62344 whole entry): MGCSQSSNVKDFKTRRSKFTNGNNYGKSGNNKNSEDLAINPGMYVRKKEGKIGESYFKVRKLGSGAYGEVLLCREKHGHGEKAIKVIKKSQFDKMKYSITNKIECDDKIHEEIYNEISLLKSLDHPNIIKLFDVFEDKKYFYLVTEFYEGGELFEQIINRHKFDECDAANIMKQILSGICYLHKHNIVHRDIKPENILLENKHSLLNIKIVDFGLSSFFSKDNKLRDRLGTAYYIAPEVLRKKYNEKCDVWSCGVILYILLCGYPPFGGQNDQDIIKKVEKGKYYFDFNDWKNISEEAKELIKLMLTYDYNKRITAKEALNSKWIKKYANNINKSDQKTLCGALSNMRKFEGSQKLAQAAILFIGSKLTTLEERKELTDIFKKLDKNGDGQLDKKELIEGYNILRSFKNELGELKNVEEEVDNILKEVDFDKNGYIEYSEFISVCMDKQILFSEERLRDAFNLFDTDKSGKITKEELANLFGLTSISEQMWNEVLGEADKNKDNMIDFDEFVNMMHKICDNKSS
Outline: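 Single-point testing used 1 μM final compound, then dose-response, against CDPK4 and CDPK1 with Syntide-2 (40 μM) as substrate. After 90 min, reactions were halted by 5 mM EGTA, and kinase activity was inferred from depleted ATP via Kinase-Glo luminescence.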

DD2 [2] = test system: DD2; parameters: method as in downloaded from ChEMBL; details: ref downloaded from ChEMBL; cited from earlier work
HepG2 cells = details: cited from earlier work
[3] = molecular target: T2, Plasmodium falciparum protein kinase 6 (PK6) (Plasmodium falciparum, UniProt Q8IDW1); test: biochemical; details: hits below 1 uM; read-out: PK6 IC50
T2 construct: 6-Histidine (N); made in house
T2 sequence (Q8IDW1 1-305): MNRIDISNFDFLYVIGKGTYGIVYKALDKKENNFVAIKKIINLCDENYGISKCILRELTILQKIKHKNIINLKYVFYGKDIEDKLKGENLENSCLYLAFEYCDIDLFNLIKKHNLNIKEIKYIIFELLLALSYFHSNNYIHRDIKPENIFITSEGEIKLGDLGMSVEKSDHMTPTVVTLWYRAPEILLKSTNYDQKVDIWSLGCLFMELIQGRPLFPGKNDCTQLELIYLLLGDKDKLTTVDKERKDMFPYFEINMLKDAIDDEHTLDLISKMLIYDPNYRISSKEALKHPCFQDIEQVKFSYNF

3D7 PFLDH [4] = test system: 3D7 PFLDH; parameters: method as in downloaded from ChEMBL; details: ref downloaded from ChEMBL; cited from earlier work
P. falciparum 3D7 cells = details: 3D7, cited from earlier work
PKG = PKG (Plasmodium falciparum, UniProt Q8I719); test: PKG IC50 (supplementary data file); type: biochemical
Chain of PKG (Q8I719 whole entry): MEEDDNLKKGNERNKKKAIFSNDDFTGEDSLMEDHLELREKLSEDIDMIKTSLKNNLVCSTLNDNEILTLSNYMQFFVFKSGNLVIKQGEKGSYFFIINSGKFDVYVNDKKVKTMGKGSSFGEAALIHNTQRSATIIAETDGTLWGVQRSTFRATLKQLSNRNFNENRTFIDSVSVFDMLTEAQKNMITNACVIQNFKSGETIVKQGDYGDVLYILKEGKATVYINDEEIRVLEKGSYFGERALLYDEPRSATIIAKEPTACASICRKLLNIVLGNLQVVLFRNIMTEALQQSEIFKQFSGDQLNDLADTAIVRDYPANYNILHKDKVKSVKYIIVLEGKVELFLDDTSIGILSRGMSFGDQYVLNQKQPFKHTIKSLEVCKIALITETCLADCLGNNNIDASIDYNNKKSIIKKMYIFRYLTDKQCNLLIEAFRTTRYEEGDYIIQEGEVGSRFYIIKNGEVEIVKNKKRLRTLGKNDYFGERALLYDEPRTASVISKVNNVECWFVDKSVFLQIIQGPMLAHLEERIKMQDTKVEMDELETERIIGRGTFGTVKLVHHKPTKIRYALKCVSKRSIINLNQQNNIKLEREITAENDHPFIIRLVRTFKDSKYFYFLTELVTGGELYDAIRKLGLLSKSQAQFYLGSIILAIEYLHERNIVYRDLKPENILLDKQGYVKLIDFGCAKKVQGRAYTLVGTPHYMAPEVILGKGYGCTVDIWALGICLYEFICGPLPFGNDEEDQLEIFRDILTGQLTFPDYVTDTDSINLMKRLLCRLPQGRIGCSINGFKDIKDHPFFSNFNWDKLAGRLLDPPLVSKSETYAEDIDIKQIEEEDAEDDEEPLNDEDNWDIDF
Text: Supplement pone.0149996.s003.xls, sheet "combined_1_sorted"

DD2 [5] = test system: DD2; parameters: method as in F.J. Gamo et al., Nature 2010; details: downloaded from ChEMBL, ref F.J. Gamo et al., Nature 2010; cited from earlier work
3D7 PFLDH [6] = test system: 3D7 PFLDH; parameters: method as in F.J. Gamo et al., Nature 2010; concentration or dose not given beside the values; details: downloaded from ChEMBL, ref F.J. Gamo et al., Nature 2010; cited from earlier work
[7] = HEPG2, ref downloaded from ChEMBL
[8] = downloaded from ChEMBL, ref F.J. Gamo et al., Nature 2010

Row | SMILES | IC50 [1] [nM] | IC50 (PKG) [nM] | PCT_INHB_DD2 (DD2 [2]) | PCT_INHIB_HEPG2 (HepG2 cells; [7]) | IC50 [3] [nM] | PCT_INHIB_3D7_PFLDH (3D7 PFLDH [4]) | PCT_IHB_3D7 (P. falciparum 3D7 cells; ref downloaded from ChEMBL) | pXC50_3D7 (P. falciparum 3D7 cells; ref downloaded from ChEMBL) | PCT_INHIB_HEPG2 (HepG2 cells; HepG2, downloaded from ChEMBL, ref F.J. Gamo et al., Nature 2010) [%] | PCT_IHB_3D7 (P. falciparum 3D7 cells; [8]) [%] | pXC50_3D7 (P. falciparum 3D7 cells; [8]) | PCT_INHB_DD2 (DD2 [5]) [%] | PCT_INHIB_3D7_PFLDH (3D7 PFLDH [6]) [%]
1 | Cn1cc(-c2ccnc3[nH]c(-c4cccc(CNC5CCC(O)CC5)c4)cc23)cn1.O=C(O)C(F)(F)F (stereo not shown) [TCMDC-133805] | 46 |  | 82 | 48 | 177 | 2 | 95 | 6.044 |  |  |  |  | 
2 | COc1c(CN2CCOCC2)cccc1-c1cc2c(-c3ccc(C(=O)O)c(C(C)C)c3)ccnc2[nH]1.O=C(O)C(F)(F)F [TCMDC-135049] |  |  | 90 | 44 | 695 | 0 | 98 | 6.1293 |  |  |  |  | 
3 | Cl.NCCCOc1cnc(-c2ccccc2)c2nc(-c3nonc3N)n(CCc3ccccc3)c12 [TCMDC-136216] | 47 | > 10000 |  |  |  |  |  |  | 56 | 93 | 5.895 | 86 | 0
4 | NCCNC(=O)c1ccc(-c2cnc3[nH]cc(-c4ccc(C(N)=O)cc4)c3c2)cc1 [TCMDC-132359] | 24 |  | 98 | 2 | 931 | 0 | 99 | 6.7676 |  |  |  |  | 
5 | Clc1ccc(-c2cnc3ccc(NCCc4cccnc4)nn23)cc1 [TCMDC-136680] | 371 |  | 32 | 34 |  | 0 | 97 | 6.067 |  |  |  |  | 
6 | COc1c(CN2CCCC2)cccc1-c1cc2c(-c3ccc(C(=O)O)c(C(C)C)c3)ccnc2[nH]1.O=C(O)C(F)(F)F [TCMDC-135050] |  |  | 98 | 56 | 541 | 0 | 99 | 6.357 |  |  |  |  | 
7 | CS(=O)(=O)Nc1cccc(-c2cnc3[nH]cc(-c4cccc(CN)c4)c3c2)c1 [TCMDC-136219] | 387 |  | 82 | 25 |  | 0 | 96 | 5.779 |  |  |  |  | 
8 | Cl.Oc1cccc(Nc2ccnc3cc(-c4ccncc4)ccc23)c1 [TCMDC-138292] | 884 |  | 99 | 8 |  | 1 | 100 | 5.98 |  |  |  |  | 
9 | NCCNS(=O)(=O)c1ccc(-c2ccnc3[nH]c(-c4ccncc4)cc23)cc1.O=C(O)C(F)(F)F [TCMDC-133364] | 422 |  | 95 | 0 | 207 | 3 | 96 | 6.076 |  |  |  |  | 
10 | Cc1nnc(-c2cccc(Nc3ccnc4cc(-c5nccs5)ccc34)c2)o1.Cl [TCMDC-138335] | 186 |  | 89 | 38 |  | 0 | 95 | 6.199 |  |  |  |  | 
11 | COc1ccc(-c2cnc3ccc(N4CCCC4)nn23)cc1OC.O=CO [TCMDC-134177] | 310 |  | 98 | 40 |  | 0 | 98 | 6.113 |  |  |  |  | 
12 | NS(=O)(=O)c1ccc(Nc2nccc(-c3c(-c4cccc(NC(=O)c5c(F)cccc5F)c4)nn4ccccc34)n2)cc1 [TCMDC-135528] | 48 |  | 89 | 83 | 140 | 0 | 93 | 6.118 |  |  |  |  | 
13 | N#Cc1ccc(-c2cnc3ccc(NCCc4cccnc4)nn23)cc1 [TCMDC-136679] | 246 |  | 81 | 27 |  | 6 | 99 | 6.593 |  |  |  |  | 
14 | Cc1nc(-c2cccc(Nc3ccnc4cc(-c5nccs5)ccc34)c2)no1.Cl [TCMDC-138334] | 191 |  | 90 | 37 |  | 0 | 99 | 6.492 |  |  |  |  | 
15 | CN(C)Cc1cccc(-c2cc3c(-c4cnn(C)c4)c(Cl)cnc3[nH]2)c1 [TCMDC-134147] | 402 |  | 21 | 75 | 128 | 0 | 96 | 6.043 |  |  |  |  | 
16 | O=C(NC1CC1)c1ccc(Nc2nccc(-c3c(-c4cccc(NC(=O)c5c(F)cccc5F)c4)nn4ccccc34)n2)cc1 [TCMDC-136002] | 26 | > 10000 | 96 | 84 |  | 0 | 94 | 6.386 |  |  |  |  | 
17 | COc1ccc(-c2cnn3ccc(Nc4cc(OC)c(OC)c(OC)c4)nc23)cc1OC [TCMDC-134383] | 157 |  | 100 | 57 |  | 0 | 98 | 6.187 |  |  |  |  | 

The next lines start with results.

Row | IC50 [1] [nM] | IC50 (PKG) [nM] | SMILES | PCT_INHB_DD2 (DD2 [2]) | PCT_INHIB_HEPG2 (HepG2 cells; [7]) | IC50 [3] [nM] | PCT_INHIB_3D7_PFLDH (3D7 PFLDH [4]) | PCT_IHB_3D7 (P. falciparum 3D7 cells; ref downloaded from ChEMBL) | pXC50_3D7 (P. falciparum 3D7 cells; ref downloaded from ChEMBL) | PCT_INHIB_HEPG2 (HepG2 cells; HepG2, downloaded from ChEMBL, ref F.J. Gamo et al., Nature 2010) [%] | PCT_IHB_3D7 (P. falciparum 3D7 cells; [8]) [%] | pXC50_3D7 (P. falciparum 3D7 cells; [8]) | PCT_INHB_DD2 (DD2 [5]) [%] | PCT_INHIB_3D7_PFLDH (3D7 PFLDH [6]) [%]
18 | 71 |  | CS(=O)(=O)CCNCc1cccc(-c2ccc3c(Nc4cc(O)c(Cl)cc4F)ccnc3c2)c1 [TCMDC-138435] | 100 | 9 |  | 0 | 100 | 6.595 |  |  |  |  | 
19 | 979 |  | COCCNCc1cccc(-c2ccc3c(Nc4ccc(Oc5ccccc5)cc4)ccnc3c2)c1 [TCMDC-138478] | 99 | 25 |  | 2 | 100 | 6.287 |  |  |  |  | 
20 | 282 |  | Oc1cc(Nc2ccnc3cc(I)ccc23)c(F)cc1Cl [TCMDC-138386] | 77 | 0 |  | 0 | 92 | 6.08 |  |  |  |  | 
21 | 705 |  | c1cncc(Oc2ccc(Nc3ccnc4cc(-c5cccc(CNCCN6CCOCC6)c5)ccc34)cc2)c1 [TCMDC-138492] | 99 | 14 |  | 4 | 100 | 6.952 |  |  |  |  | 
22 | 185 |  | CN(C)Cc1ccc(-c2ccc3c(Nc4ccc(Cl)cc4F)ccnc3c2)o1 [TCMDC-138389] | 99 | 13 |  | 0 | 100 | 6.6173 |  |  |  |  | 
23 | 435 |  | c1ccc(Oc2ccc(Nc3ccnc4cc(-c5ccc(CNCCN6CCOCC6)o5)ccc34)cc2)cc1 [TCMDC-138398] | 99 | 20 |  | 0 | 99 | 6.358 |  |  |  |  | 
24 | 887 |  | CN(C)CCNCc1nc(-c2ccc3c(Nc4ccc(Oc5ccccc5)cc4)ccnc3c2)cs1 [TCMDC-138410] | 100 | 8 |  | 6 | 100 | 6.1332 |  |  |  |  | 
25 | 406 |  | CN1CCN(Cc2ccc(-c3ccc4c(Nc5ccc(Cl)cc5F)ccnc4c3)o2)CC1 [TCMDC-138395] | 100 | 47 |  | 0 | 100 | 6.811 |  |  |  |  | 
26 | 374 |  | CN(C)CCNCc1ccc(-c2ccc3c(Nc4ccc(Cl)cc4F)ccnc3c2)o1 [TCMDC-138391] | 100 | 14 |  | 0 | 99 | 6.681 |  |  |  |  | 
27 | 915 |  | CN(C)CCN(C)Cc1nc(-c2ccc3c(Nc4ccc(Oc5ccccc5)cc4)ccnc3c2)cs1 [TCMDC-138408] | 100 | 27 |  | 0 | 100 | 6.673 |  |  |  |  | 
28 | 436 |  | COCCNCc1cccc(-c2ccc3c(Nc4cc(O)c(Cl)cc4F)ccnc3c2)c1 [TCMDC-138429] | 79 | 0 |  | 7 | 100 | 6.944 |  |  |  |  | 
